Laboratory results reported in PubChem BioAssay AID2060341 (Molecular Pharmacology Branch, DTP, NCI, 2025).
pIC50: −log10 of the molar value. Values joined by “and” are separate entries in the source; they are usually repeats but may differ in a detail not shown here. Equal values may be shown once.

Test system: 327498-153-R-J2-PDC multicell spheroid viability
Experiment: Anticancer human tumor 327498-153-R-J2-PDC patient-derived uterine carcinosarcoma cell line growth inhibition [IpAb]
Settings: for viability, T/C: stronger effect = lower value
Summary of the method: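 Combinations with ipatasertib or abemaciclib were tested on tumour spheroids holding HUVEC (25%) and MSC (15%) alongside 60% malignant cells. Top concentration was at or near clinical Cmax (10 microM if undefined), descending in half-log steps.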

[1] = curve of first compound, second compound 0.1 µM
[2] = curve of first compound, second compound 0.316 µM
[3] = curve of first compound, second compound 1 µM
[4] = curve of first compound, second compound 3.16 µM
[5] = curve of first compound, second compound 10 µM
[6] = second compound 0.1 µM, first compound 0.0316 µM
[7] = second compound 0.1 µM, first compound 0.1 µM
[8] = second compound 0.1 µM, first compound 0.316 µM
[9] = second compound 0.1 µM, first compound 1 µM
[10] = second compound 0.1 µM, first compound 3.16 µM
[11] = second compound 0.1 µM, first compound 10 µM
[12] = second compound 0.316 µM, first compound 0.0316 µM
[13] = second compound 0.316 µM, first compound 0.1 µM
[14] = second compound 0.316 µM, first compound 0.316 µM
[15] = second compound 0.316 µM, first compound 1 µM
[16] = second compound 0.316 µM, first compound 3.16 µM
[17] = second compound 0.316 µM, first compound 10 µM
[18] = second compound 1 µM, first compound 0.0316 µM
[19] = second compound 1 µM, first compound 0.1 µM
[20] = second compound 1 µM, first compound 0.316 µM
[21] = second compound 1 µM, first compound 1 µM
[22] = second compound 1 µM, first compound 3.16 µM
[23] = second compound 1 µM, first compound 10 µM
[24] = second compound 3.16 µM, first compound 0.0316 µM
[25] = second compound 3.16 µM, first compound 0.1 µM
[26] = second compound 3.16 µM, first compound 0.316 µM
[27] = second compound 3.16 µM, first compound 1 µM
[28] = second compound 3.16 µM, first compound 3.16 µM
[29] = second compound 3.16 µM, first compound 10 µM
[30] = second compound 10 µM, first compound 0.0316 µM
[31] = second compound 10 µM, first compound 0.1 µM
[32] = second compound 10 µM, first compound 0.316 µM
[33] = second compound 10 µM, first compound 1 µM
[34] = second compound 10 µM, first compound 3.16 µM
[35] = second compound 10 µM, first compound 10 µM
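Also: spheroids exposed to agents for 7 days.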
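For viability, T/C in this document: 100% = DMSO vehicle control viability.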

| SMILES | pIC50 [1] | pIC50 [2] | pIC50 [3] | pIC50 [4] | pIC50 [5] | viability, T/C [6] | viability, T/C [7] | viability, T/C [8] | viability, T/C [9] | viability, T/C [10] | viability, T/C [11] | viability, T/C [12] | viability, T/C [13] | viability, T/C [14] | viability, T/C [15] | viability, T/C [16] | viability, T/C [17] | viability, T/C [18] | viability, T/C [19] | viability, T/C [20] | also measured |
| --- | --- | --- | --- | --- | --- | --- | --- | --- | --- | --- | --- | --- | --- | --- | --- | --- | --- | --- | --- | --- | --- |
| CC1(C)CCC(CN2CCN(c3ccc(C(=O)NS(=O)(=O)c4ccc(NCC5CCOCC5)c([N+](=O)[O-])c4)c(Oc4cnc5[nH]ccc5c4)c3)CC2)=C(c2ccc(Cl)cc2)C1 + CC(C)NCC(C(=O)N1CCN(c2ncnc3c2C(C)CC3O)CC1)c1ccc(Cl)cc1 | 5.27 | 5.40 | 5.46 | > 7.50 | > 7.50 | 92.4% | 96.7% | 88.8% | 91.6% | 84.7% | 9.23% | 84.1% | 76.2% | 73% | 71.5% | 62.9% | 5.02% | 61.5% | 57.1% | 56% | viability, T/C [21]: 51.7%; viability, T/C [22]: 54.8%; viability, T/C [23]: 2.82%; viability, T/C [24]: 43.8%; viability, T/C [25]: 43.9%; viability, T/C [26]: 43.5%; viability, T/C [27]: 42.7%; viability, T/C [28]: 42.9%; viability, T/C [29]: 1.99%; viability, T/C [30]: 34.7%; viability, T/C [31]: 30.8%; viability, T/C [32]: 31.3%; viability, T/C [33]: 31.1%; viability, T/C [34]: 26.6%; viability, T/C [35]: 0.91% |
| CC(=O)c1c(C)c2cnc(Nc3ccc(N4CCNCC4)cn3)nc2n(C2CCCC2)c1=O | – | – | – | – | – | – | – | – | – | – | – | – | – | – | – | – | – | – | – | – | viability, T/C (compound 0.000949 µM): 106% and 97.8%; viability, T/C (compound 0.003 µM): 96.7% and 103%; viability, T/C (compound 0.00949 µM): 99.7% and 95.5%; viability, T/C (compound 0.03 µM): 79.2% and 89.8%; viability, T/C (compound 0.0949 µM): 70.2% and 70.4%; viability, T/C (compound 0.3 µM): 71% and 56.5%; pIC50 (curve of compound): < 6.52 |
| CCN1CCN(Cc2ccc(Nc3ncc(F)c(-c4cc(F)c5nc(C)n(C(C)C)c5c4)n3)nc2)CC1 | – | – | – | – | – | – | – | – | – | – | – | – | – | – | – | – | – | – | – | – | viability, T/C (compound 0.01 µM): 92% [middle of 13 runs]; viability, T/C (compound 0.0316 µM): 72.6% [middle of 13 runs]; viability, T/C (compound 0.1 µM): 62.2% [middle of 13 runs]; viability, T/C (compound 0.316 µM): 57.3% [middle of 13 runs]; viability, T/C (compound 1 µM): 56.8% [middle of 13 runs] |
| C=CCn1c(=O)c2cnc(Nc3ccc(N4CCN(C)CC4)cc3)nc2n1-c1cccc(C(C)(C)O)n1 + CC(C)NCC(C(=O)N1CCN(c2ncnc3c2C(C)CC3O)CC1)c1ccc(Cl)cc1 | 6.59 | 6.82 | 7.00 | > 7.50 | > 7.50 | 90.3% | 83.2% | 43.2% | 3.61% | 3.91% | 6.69% | 73.8% | 65.2% | 22.6% | 3.04% | 3.47% | 6.17% | 49.6% | 50.5% | 17.3% | viability, T/C [21]: 3.25%; viability, T/C [22]: 2.88%; viability, T/C [23]: 5.72%; viability, T/C [24]: 45.1%; viability, T/C [25]: 35.2%; viability, T/C [26]: 11.5%; viability, T/C [27]: 3.53%; viability, T/C [28]: 3.4%; viability, T/C [29]: 4.64%; viability, T/C [30]: 30.4%; viability, T/C [31]: 27.4%; viability, T/C [32]: 8.25%; viability, T/C [33]: 3%; viability, T/C [34]: 3.44%; viability, T/C [35]: 4.49% |
| C=CC(=O)N1CCN(c2nc(=O)n(-c3c(C)ccnc3C(C)C)c3nc(-c4c(O)cccc4F)c(F)cc23)C(C)C1 (configuration not stated) + CC(C)NCC(C(=O)N1CCN(c2ncnc3c2C(C)CC3O)CC1)c1ccc(Cl)cc1 | 6.66 | > 7.50 | > 7.50 | > 7.50 | > 7.50 | 66.7% | 55.7% | 45.3% | 46.4% | 43.8% | 40.8% | 46.2% | 36.6% | 36.8% | 30.3% | 30.5% | 29.1% | 37.3% | 25.6% | 22.4% | viability, T/C [21]: 22.4%; viability, T/C [22]: 21.1%; viability, T/C [23]: 18.9%; viability, T/C [24]: 28.9%; viability, T/C [25]: 19.3%; viability, T/C [26]: 15.7%; viability, T/C [27]: 16.6%; viability, T/C [28]: 15%; viability, T/C [29]: 15.7%; viability, T/C [30]: 15.2%; viability, T/C [31]: 14.2%; viability, T/C [32]: 14.5%; viability, T/C [33]: 13.3%; viability, T/C [34]: 12.1%; viability, T/C [35]: 11.4% |
